# Values quoted from earlier work, collected in patent US20110300245A1, “Topical, palatable, anti-inflammatory and analgesic for specific application to intraoral, gingival and extraoral areas correlated with, and related to, the trigeminal nerve and its nerve branches and plexus. To mitigate, attenuate or prevent migraine-type headache, cluster-type headache, …” (priority 2010, published 2011).
# Like-named read-outs stand apart in the source and are kept apart here.
# Legend:
# [1] = for patients with symptoms controlled within 2 weeks: added orally to the sulfasalazine/prednisolone regimen, allopurinol 50 mg or DMSO 500 mg four times a day, p<0.01
# [2] = rheumatoid arthritis patients
# [3] = intravesical, 213 patients
# [4] = not given; remark: listed apart in the source
# [5] = tested on: peripheral nerve C fibers; conditions: laboratory studies
# [6] = not given; remark: listed apart in the source
# [7] = in vivo
# [8] = not given; remark: listed apart in the source
# [9] = not given; remark: listed apart in the source
# cell proliferation = conditions: in vitro
# [10] = given with sulfasalazine 2 gm daily, p<0.05
smiles,measurement,setting,value
"C[S+](C)[O-] [DMSO, dimethyl sulfoxide]",patients with symptoms controlled within 2 weeks,[1],84%
same,patients relapsed during 12 months of prophylactic treatment,[1]; [10],5%
same,"effects on joint pain, range of joint motion and grip strength",[2],analgesic and anti-inflammatory effects
same,patients showing improvement,acute patients,80%
same,patients showing improvement,chronic patients,60%
same,systemic or local toxicity,[3],no systemic or local toxicity
same,symptomatic relief,[3]; majority of patients,Significant symptomatic relief
same,number of patients with normal ICP,"[4]; after 6 days of treatment, ten patients",7
same,ICP after 24 h,"[4]; intravenous every 6 h, all ten patients, ICP 40-127 mm Hg",reduction of ICP
same,neurological outcome,"[4]; severe closed-head injury patients, intravenous",improves neurological outcome
same,nerve conduction,[5],blocking peripheral nerve C fibers
same,relief of pain in rheumatoid arthritis,[6]; 27 patients with rheumatoid arthritis,all but four had some degree of relief of pain
same,pain relief,"[6]; 103 patients, topical application",pain relief of varying degrees in most patients
same,time to pain relief after application,"[6]; DMSO 1.0 ml, five patients with acute supraspinatus tendon pain associated with calcification",≤ 10 min
same,symptomatic relief,[6]; all six patients with acute calcified supraspinatus bursitis,Spectacular symptomatic relief
same,recovery with normal use of the shoulder,[6]; continued applications every four hours over the following 24 hour period,complete recovery
same,edema in animals,[7],reduction of edema
CC(C(=O)O)c1cccc(C(=O)c2ccccc2)c1 (stereo not shown) [Ketoprofen],side effects,[8]; 30-day treatment phase,minimal
same,average monthly headache burden score (intensity 0-10 x duration in hours),"[8]; 30-day treatment phase, gel once daily, 20 patients, 30-day baseline 454.8, p<0.001",86.5
same,analgesic and headache medication intake,[8]; treatment phase versus baseline,significantly reduced
Oc1ncnc2[nH]ncc12 [allopurinol],patients with symptoms controlled within 2 weeks,[1],84%
same,patients relapsed during 12 months of prophylactic treatment,[1]; [10],5%
"O=C(O)c1cc(/N=N/c2ccc(S(=O)(=O)Nc3ccccn3)cc2)ccc1O [sulfasoizine, sulfasalazine]",patients relapsed during 12 months of prophylactic treatment,[1]; sulfasalazine 2 gm daily alone,25%
CNS(=O)(=O)Cc1ccc2[nH]cc(CCN(C)C)c2c1 [sumatriptan],mean headache relief (0-10 scale),"[9]; 50 mg oral, at 1, 2, 4, and 24 hours after initiation of treatment",Significant mean headache relief
same,nausea relief,"[9]; 50 mg oral, same post treatment time intervals (1, 2, 4, 24 hours)",Significant nausea relief
same,headache and nausea recurrence,[9]; at 24 hours,some headache and nausea recurrence
"O=C(O)C[C@H](O)C(=O)OC[C@H]1OC(O)[C@H](O)[C@@H](O)[C@@H]1O[C@H]1O[C@H](CO)[C@@H](O)[C@H](O)[C@H]1O (stereo partly drawn) [veracylglucan B, alpha-D-Glcp-(1-->4)-6-O-(1-L-maloyl)-alpha,-beta,-D-Glcp]",anti-inflammatory activity and effect on cell proliferation,cell proliferation,potent anti-inflammatory and anti-proliferative effects
"O=C(O)C[C@H](O)C(=O)OC[C@H]1O[C@H](O[C@H]2[C@H](O)[C@@H](O)[C@@H](O[C@H]3[C@H](O)[C@@H](O)[C@@H](O[C@H]4[C@H](O)[C@@H](O)[C@@H](O[C@H]5[C@H](O)[C@@H](O)C(O)O[C@@H]5COC(=O)[C@@H](O)CC(=O)O)O[C@@H]4COC(=O)[C@@H](O)CC(=O)O)O[C@@H]3COC(=O)[C@@H](O)CC(=O)O)O[C@@H]2COC(=O)[C@@H](O)CC(=O)O)[C@H](O)[C@@H](O)[C@@H]1O[C@H]1O[C@H](CO)[C@@H](O)[C@H](O)[C@H]1O (stereo partly drawn) [veracylglucan C, alpha-D-Glcp-(1-->4)-tetra-[6-O-(1-L-maloyl)-alpha-D-Glcp-(1-->4)]-6-O-(1-L-maloyl)-alpha,-beta-D-Glcp]",anti-inflammatory activity and effect on cell proliferation,cell proliferation,significant cell proliferative and anti-inflammatory activities
